According to US11946092B2, “Method for producing 2-keto-3-deoxygluconate from 2-(acetylamino)-2-deoxy-d-gluconic acid by two enzymes” (SHANDONG UNIVERSITY, priority 2022, dated 2024):

What was measured:
deaminase OngC = test: Substrate specificity analysis of OngC (ammonia production); format: biochemical, Pseudoalteromonas prydzensis ACAM 620; conditions: 0.5 μM OngC, 10 mM substrate, 10 mM Bis-Tris-HCl (pH 7.5), 25° C., 30 min; FIG. 4B
Description: Substrate specificity assays were performed with GlcN1A, D-glucosamine, D-galactosamine and D-mannosamine. GlcN1A was prepared by incubating 10 μM OngB with 10 mM GlcNAc1A in 10 mM Bis-Tris-HCl (pH 7.5) at 25° C. for 4 h. Standard reaction system contained 0.5 μM OngC, 10 mM substrate and 10 mM Bis-Tris-HCl (pH 7.5). Reactions were conducted at 25° C. for 30 min. The production of ammonia in the reaction mixture was determined with an AMMONIA (Rapid) ASSAY PROCEDURE. One unit of enzyme (U) is defined as the amount of enzyme required to release 1 μmol of ammonia per minute.

deacetylase OngB = test: Substrate specificity analysis of OngB (acetate production); format: biochemical, Pseudoalteromonas prydzensis ACAM 620; conditions: 5 μM OngB, 25 mM substrate, 10 mM Bis-Tris-HCl (pH 7.5), 25° C., 30 min; FIG. 4A
Description: Substrate specificity assays were performed with GlcNAc1A, GlcNAc, GlcNAc-6-P, N-acetyl-D-glutamate and N-acetyl-D-serine. Standard reaction system contained 5 μM OngB, 25 mM substrate and 10 mM Bis-Tris-HCl (pH 7.5). Reactions were conducted at 25° C. for 30 min. The production of acetate in the reaction mixture was determined with an Acetic Acid (ACS Analyser Format) Assay Kit. One unit of enzyme (U) is defined as the amount of enzyme required to release 1 μmol of acetate per minute.

Structure (SMILES) | OngC activity towards substrate (production of ammonia) (deaminase OngC) | OngB activity towards substrate (production of acetate) (deacetylase OngB)
N[C@H]1C(O)O[C@H](CO)[C@H](O)[C@@H]1O (stereo partly drawn) [D-galactosamine] | little or no activity | –
N[C@H]1C(O)O[C@H](CO)[C@@H](O)[C@@H]1O (stereo partly drawn) [D-glucosamine] | little or no activity | –
N[C@@H]1C(O)O[C@H](CO)[C@@H](O)[C@@H]1O (stereo partly drawn) [D-mannosamine] | little or no activity | –
N[C@@H](C(=O)O)[C@@H](O)[C@H](O)[C@H](O)CO [GlcN1A, 2-(amino)-2-deoxy-D-gluconic acid] | high substrate specificity | –
CC(=O)N[C@@H](C(=O)O)[C@@H](O)[C@H](O)[C@H](O)CO [GlcNAc1A, 2-(acetylamino)-2-deoxy-D-gluconic acid] | – | high substrate specificity
CC(=O)N[C@H]1C(O)O[C@H](CO)[C@@H](O)[C@@H]1O (stereo partly drawn) [GlcNAc, N-acetyl-D-glucosamine] | – | little or no activity
CC(=O)N[C@@H]1[C@@H](O)[C@H](O)[C@@H](COP(=O)(O)O)O[C@@H]1O [GlcNAc-6-P] | – | little or no activity
CC(=O)N[C@H](CCC(=O)O)C(=O)O [N-acetyl-D-glutamate] | – | little or no activity
CC(=O)N[C@H](CO)C(=O)O [N-acetyl-D-serine] | – | little or no activity
